The text below walks through data of patent US20210094920A1, “NR2B LIGANDS; METHOD OF MAKING; AND USE THEREOF” (THE UNITED STATES OF AMERICA, AS REPRESENTED BY THE …, priority 2018, published 2021).

Like-named read-outs stand apart in the source and are kept apart here. Some results are limits rather than exact numbers.

One data set has as its target NR2B site (Homo sapiens, UniProt Q05586+Q13224). The experiment in a line: binding to the NR2B site (Ki, automatic and manual). Particulars: for affinity for NR2B: stated in words. The method, then:
(§1) All derivatives were evaluated for binding to the NR2B site and other neuro-targets. Table 1 provides the structures of the derivatives, molecular weight, calculated Log D values, the structure-activity relationship, and binding data.

The target in another data set is σ1 receptor (Homo sapiens, UniProt Q99720). The experiment in a line: σ1 receptor binding at 10 μM. The method, then: as §1
Sequence of σ1 receptor (Q99720 whole entry): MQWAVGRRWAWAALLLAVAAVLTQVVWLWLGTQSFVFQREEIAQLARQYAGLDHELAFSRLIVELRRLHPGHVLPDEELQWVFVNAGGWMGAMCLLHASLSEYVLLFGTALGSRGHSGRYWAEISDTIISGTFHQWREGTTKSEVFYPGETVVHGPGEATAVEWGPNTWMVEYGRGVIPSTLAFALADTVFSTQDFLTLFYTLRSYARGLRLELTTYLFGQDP
The next data set has as its target σ2 receptor (Homo sapiens, UniProt Q5BJF2). Briefly: σ2 receptor binding at 10 μM. The method, then:
as §1

For data set [1], the target named is NR2B subunits in NMDA receptors (Rattus norvegicus, UniProt P35439+Q00960). Briefly: PET imaging of brain in rats (baseline, preblock, displacement). The conditions noted are these: for effect of pretreatment on brain radioactivity uptake / displacement of radioligand: radioligand [^11C]NR2B-SMe; for displacement of radioligand: given at 15 min after radioligand, over 90 min; for brain radioactivity uptake / washout of brain radioactivity: rats at baseline; for brain radioactivity uptake: i.v. radioligand, at 5 minutes; for washout of brain radioactivity: over 90 minutes.
Sequence of NR2B subunits in NMDA receptors (Rattus norvegicus, UniProt P35439+Q00960) (Q00960 27-1482, other chains not shown): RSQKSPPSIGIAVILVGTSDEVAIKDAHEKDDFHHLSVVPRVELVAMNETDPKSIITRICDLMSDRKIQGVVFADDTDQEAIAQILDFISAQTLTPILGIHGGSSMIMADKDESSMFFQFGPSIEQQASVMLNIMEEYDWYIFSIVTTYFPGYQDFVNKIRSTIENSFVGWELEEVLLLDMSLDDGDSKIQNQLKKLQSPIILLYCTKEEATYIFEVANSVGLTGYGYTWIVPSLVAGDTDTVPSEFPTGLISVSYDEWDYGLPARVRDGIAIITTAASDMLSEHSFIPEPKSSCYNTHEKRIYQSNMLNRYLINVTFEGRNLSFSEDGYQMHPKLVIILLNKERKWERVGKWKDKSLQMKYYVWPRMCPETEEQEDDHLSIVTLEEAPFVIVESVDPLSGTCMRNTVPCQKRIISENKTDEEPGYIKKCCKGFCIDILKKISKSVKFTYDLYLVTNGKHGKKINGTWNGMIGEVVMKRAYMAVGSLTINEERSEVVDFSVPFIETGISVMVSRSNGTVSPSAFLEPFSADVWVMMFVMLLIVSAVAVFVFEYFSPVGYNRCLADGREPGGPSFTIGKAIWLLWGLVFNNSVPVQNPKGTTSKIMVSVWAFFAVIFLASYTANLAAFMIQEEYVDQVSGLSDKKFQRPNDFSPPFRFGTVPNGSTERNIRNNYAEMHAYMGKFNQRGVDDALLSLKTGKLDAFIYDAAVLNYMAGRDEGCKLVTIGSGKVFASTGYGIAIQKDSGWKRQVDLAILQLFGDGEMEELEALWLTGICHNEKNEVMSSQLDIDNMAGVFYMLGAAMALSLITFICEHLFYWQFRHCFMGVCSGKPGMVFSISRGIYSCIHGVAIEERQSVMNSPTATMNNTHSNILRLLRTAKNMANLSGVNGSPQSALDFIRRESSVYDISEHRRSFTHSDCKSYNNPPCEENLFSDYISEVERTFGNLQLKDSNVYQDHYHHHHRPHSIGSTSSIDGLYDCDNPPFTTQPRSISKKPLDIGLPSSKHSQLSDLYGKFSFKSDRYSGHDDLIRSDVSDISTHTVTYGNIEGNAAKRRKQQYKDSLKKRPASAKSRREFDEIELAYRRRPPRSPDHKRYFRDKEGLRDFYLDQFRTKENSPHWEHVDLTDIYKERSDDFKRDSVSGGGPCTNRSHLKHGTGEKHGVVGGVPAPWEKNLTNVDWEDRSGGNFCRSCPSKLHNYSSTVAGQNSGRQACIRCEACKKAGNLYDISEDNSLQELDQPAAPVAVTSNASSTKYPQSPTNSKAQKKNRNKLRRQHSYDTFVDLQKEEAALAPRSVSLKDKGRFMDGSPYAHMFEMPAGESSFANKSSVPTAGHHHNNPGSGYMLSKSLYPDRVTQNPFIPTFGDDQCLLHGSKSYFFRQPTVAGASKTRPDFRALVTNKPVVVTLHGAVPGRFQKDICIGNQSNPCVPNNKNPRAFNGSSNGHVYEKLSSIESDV
Protocol: Displacement studies where NR2B-SMe or eliprodil was given at 15 min after radioligand were also performed.

In data set [2] the test system is NR2B subunits in NMDA receptors. Briefly: Brain PET imaging (VT/fP) in monkey (baseline, Co101244 block, self-block). In kind it is in vivo. An excerpt:
Table 2 provides the normalized total volume of distribution (VT/fP) (ml/cm^3) for whole brain and specific regions of the brain at baseline, Co101244 (1-[2-(4-hydroxyphenoxy)ethyl]-4-[(4-methylphenyl)methyl]-4-piperidinol) block and self-block.

For data set [3] the test system is unchanged. The data set is described as above. The class given is in vivo. This is another data set of the same source.
Setting [4] is: automatic, read-out: Ki (nM), automatic.
[5] abbreviates: manual, read-out: Ki (nM), manual.
[6] abbreviates: rats, 0.01-3 mg/kg, i.v. at 15 min before radioligand injection.

Sequence of NR2B site (Q13224 27-1484, other chains not shown): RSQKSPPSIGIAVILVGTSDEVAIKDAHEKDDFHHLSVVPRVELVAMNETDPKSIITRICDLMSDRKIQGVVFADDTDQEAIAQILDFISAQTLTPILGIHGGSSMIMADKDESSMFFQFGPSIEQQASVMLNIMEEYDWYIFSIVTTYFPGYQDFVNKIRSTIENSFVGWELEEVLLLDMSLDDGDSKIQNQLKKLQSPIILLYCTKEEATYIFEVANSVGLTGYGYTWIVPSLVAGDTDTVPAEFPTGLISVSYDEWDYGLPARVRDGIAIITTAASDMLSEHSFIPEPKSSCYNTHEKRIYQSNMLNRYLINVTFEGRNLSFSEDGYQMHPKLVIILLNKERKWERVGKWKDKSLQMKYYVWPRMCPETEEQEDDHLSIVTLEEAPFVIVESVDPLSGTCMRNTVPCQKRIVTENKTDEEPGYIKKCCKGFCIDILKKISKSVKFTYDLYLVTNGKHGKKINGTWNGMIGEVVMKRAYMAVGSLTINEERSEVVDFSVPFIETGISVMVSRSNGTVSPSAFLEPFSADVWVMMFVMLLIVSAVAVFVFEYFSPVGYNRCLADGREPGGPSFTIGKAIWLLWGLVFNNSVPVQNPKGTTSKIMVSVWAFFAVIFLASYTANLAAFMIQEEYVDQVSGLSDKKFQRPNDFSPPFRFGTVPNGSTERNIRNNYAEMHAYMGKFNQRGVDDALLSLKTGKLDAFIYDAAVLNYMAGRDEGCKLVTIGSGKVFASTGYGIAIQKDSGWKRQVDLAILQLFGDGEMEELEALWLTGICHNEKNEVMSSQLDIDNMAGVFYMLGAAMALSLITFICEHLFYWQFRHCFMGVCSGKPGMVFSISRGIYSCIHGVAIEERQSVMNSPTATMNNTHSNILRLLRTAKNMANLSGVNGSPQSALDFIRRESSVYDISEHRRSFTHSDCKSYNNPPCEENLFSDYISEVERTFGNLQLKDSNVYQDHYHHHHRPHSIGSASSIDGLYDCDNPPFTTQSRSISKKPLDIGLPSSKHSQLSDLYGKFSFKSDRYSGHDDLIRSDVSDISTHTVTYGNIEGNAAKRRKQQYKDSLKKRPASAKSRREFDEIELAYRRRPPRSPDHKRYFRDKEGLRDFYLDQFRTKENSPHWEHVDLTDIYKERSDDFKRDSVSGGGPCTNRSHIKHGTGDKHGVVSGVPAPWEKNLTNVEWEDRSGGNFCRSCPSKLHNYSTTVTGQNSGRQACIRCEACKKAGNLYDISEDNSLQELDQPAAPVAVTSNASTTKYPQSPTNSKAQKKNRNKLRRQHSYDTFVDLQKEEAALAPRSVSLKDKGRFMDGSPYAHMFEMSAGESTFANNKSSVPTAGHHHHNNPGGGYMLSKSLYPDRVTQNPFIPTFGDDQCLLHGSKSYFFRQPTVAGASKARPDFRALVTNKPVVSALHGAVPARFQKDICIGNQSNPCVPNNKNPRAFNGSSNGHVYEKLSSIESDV
Sequence of σ2 receptor (Q5BJF2 whole entry, species assumed): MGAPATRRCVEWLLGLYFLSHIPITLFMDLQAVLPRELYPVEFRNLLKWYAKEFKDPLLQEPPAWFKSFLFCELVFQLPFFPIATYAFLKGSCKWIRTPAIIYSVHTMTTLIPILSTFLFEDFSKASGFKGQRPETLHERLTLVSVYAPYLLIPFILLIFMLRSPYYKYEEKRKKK

For orientation: Ki means the equilibrium dissociation constant of an inhibitor or competing ligand from its target. For orientation: inhibition means the change of the read-out against control, counted positive when it falls. On to `COc1ccc2c(c1)CCN(CCCCc1ccccc1)CC2O` (stereo not drawn) [Compound 1, 7-methoxy-3-(4-phenylbutyl)-2,3,4,5-tetrahydro-1H-benzo[d]azepin-1-ol, reference compound], for which the Ki at NR2B site (setting [4]) turned out to be 43.5 nM; at NR2B site (setting [5]) it was 9.8 nM. Moreover, the inhibition at 10 µM at σ1 receptor was found to be 89.1%; on σ2 receptor, 87.8%.
`COc1ccc2c(c1)CCN(CCCCc1ccc3ccccc3c1)CC2O` (stereo not drawn) [Compound 2]: at σ1 receptor, 10 µM produced 84.4% inhibition.
With `COc1ccc(CCCCN2CCc3cc(OC)ccc3C(O)C2)cc1` (stereo not drawn) [Compound 3], 10 µM produced 91.4% inhibition on σ2 receptor.
Regarding `COc1ccc2c(c1)CCN(CCCCc1ccc(C)cc1)CC2O` (stereo not drawn) [Compound 4, 7-methoxy-3-(4-(4-methylphenyl)butyl)-2,3,4,5-tetrahydro-1H-benzo[d]azepin-1-ol], the Ki on NR2B site (setting [4]) came out at 31.3 nM; on NR2B site (setting [5]), 4.9 nM. Moreover, at NR2B site, the “affinity for NR2B” value is “in the nM range”. Further, the inhibition at 10 µM at σ1 receptor was found to be 89.7%; on σ2 receptor it was 90.7%.
As to `COc1ccc2c(c1)CCN(CCCCc1ccc(Br)cc1)CC2O` (stereo not drawn) [Compound 5], the inhibition at 10 µM on σ1 receptor was 83.7%; at σ2 receptor, 90%.
The matching figures for `COc1ccc2c(c1)CCN(CCCCc1ccc(F)cc1)CC2O` (stereo not drawn) [Compound 6]: 57.9% and 76.9%.
The matching figures for `COc1ccc2c(c1)CCN(CCC#Cc1ccccn1)CC2O` (stereo not drawn) [Compound 7]: 66.4% and 74.2%.
The matching figures for `COc1ccc2c(c1)CCN(CCC#Cc1cccc(F)n1)CC2O` (stereo not drawn) [Compound 8]: 40.8% and 56.4%.
For `COc1ccc2c(c1)CCN(CCCCc1ccc(SC)cc1)CC2O` (stereo not drawn) [Compound 9, 7-methoxy-3-(4-(4-(methylthio)phenyl)butyl)-2,3,4,5-tetrahydro-1H-benzo[d]azepin-1-ol], on NR2B site (setting [4]), the Ki is 20 nM. Moreover, on NR2B site, the “affinity for NR2B” value is given as “in the nM range”. In addition, the “effect of pretreatment on brain radioactivity uptake” value (“effect of pretreatment” for short) in data set [1] (setting [6]) is “blocked brain radioactivity uptake in a dose-dependent manner”. Moreover, in data set [1] (rats), the displacement of radioligand entry is “only slow and low displacement”.
Regarding `OC(CN1CCC(Cc2ccc(F)cc2)CC1)c1ccc(Cl)cc1` (stereo not drawn) [Eliprodil, reference compound], the “effect of pretreatment” value in data set [1] (rats, 3 mg/kg i.v) is on record as “blocked brain radioactivity uptake to the similar high extent”. Besides, in data set [1] (rats), the displacement of radioligand result is “failed to displace radioligand”.
Consider `COc1ccc(CCN2CCN(CCCc3ccccc3)CC2)cc1OC` [SA 4503, reference compound], for which the “effect of pretreatment” value in data set [1] (setting [6]) is “blocked brain radioactivity uptake in a dose-dependent manner”.
For `COc1ccc2c(c1)CCN(CCCCc1ccc(C)cc1)CC2O` (stereo not drawn) [[^11C]NR2B-Me, 7-methoxy-3-(4-(4-methylphenyl)butyl)-2,3,4,5-tetrahydro-1H-benzo[d]azepin-1-ol], in data set [1], the brain radioactivity uptake was 3.0 SUV and the “washout of brain radioactivity” value is given as “slow washout”.
Turning to `COc1ccc2c(c1)CCN(CCCCc1ccc(C)cc1)C[C@@H]2O` [[^11C]NR2B-MeI, (R)(−)7-methoxy-3-(4-(4-methylphenyl)butyl)-2,3,4,5-tetrahydro-1H-benzo[d]azepin-1-ol], the “Normalized Total Volume of Distribution (VT/fp)” value (“Normalized Total Volume” below) came to 3171.1 ml/cm^3 in data set [2] (Amygdala, Baseline Ave.); 515.5 ml/cm^3 in data set [2] (Amygdala, Co101244 block); 405.4 ml/cm^3 in data set [2] (Amygdala, Self-block); 1465.9 ml/cm^3 in data set [2] (Cerebellum, Baseline Ave.); 426.4 ml/cm^3 in data set [2] (Cerebellum, Co101244 block); 348.6 ml/cm^3 in data set [2] (Cerebellum, Self-block). For the same compound, the “Normalized Total Volume” value in data set [2] (Cingulate Cortex, Baseline Ave.) turned out to be 2388.9 ml/cm^3; in data set [2] (Cingulate Cortex, Co101244 block), 523.3 ml/cm^3; in data set [2] (Cingulate Cortex, Self-block), 400.0 ml/cm^3; in data set [2] (Frontal Cortex, Baseline Ave.), 2254.5 ml/cm^3; in data set [2] (Frontal Cortex, Co101244 block), 562.0 ml/cm^3; in data set [2] (Frontal Cortex, Self-block) it was 451.4 ml/cm^3. The “Normalized Total Volume” value in data set [2] (Hippocampus, Baseline Ave.) stood at 2389.6 ml/cm^3; in data set [2] (Hippocampus, Co101244 block), 465.1 ml/cm^3; in data set [2] (Hippocampus, Self-block), 370.3 ml/cm^3; in data set [2] (Insula, Baseline Ave.), 2314.2 ml/cm^3; in data set [2] (Insula, Co101244 block), 542.6 ml/cm^3; in data set [2] (Insula, Self-block) it was 408.1 ml/cm^3. Moreover, the “Normalized Total Volume” value in data set [2] (Occipital Lobe, Baseline Ave.) came to 1676.3 ml/cm^3; in data set [2] (Occipital Lobe, Co101244 block), 484.5 ml/cm^3; in data set [2] (Occipital Lobe, Self-block), 402.7 ml/cm^3; in data set [2] (Parietal Lobe, Baseline Ave.) it was 2001.4 ml/cm^3; in data set [2] (Parietal Lobe, Co101244 block), 538.8 ml/cm^3; in data set [2] (Parietal Lobe, Self-block), 440.5 ml/cm^3. Besides, the “Normalized Total Volume” value is 1965.2 ml/cm^3 in data set [2] (Striatum, Baseline Ave.); 573.6 ml/cm^3 in data set [2] (Striatum, Co101244 block); 437.8 ml/cm^3 in data set [2] (Striatum, Self-block); 1956.8 ml/cm^3 in data set [2] (Temporal Lobe, Baseline Ave.); 476.7 ml/cm^3 in data set [2] (Temporal Lobe, Co101244 block); 373.0 ml/cm^3 in data set [2] (Temporal Lobe, Self-block). Besides, the “Normalized Total Volume” value in data set [2] (Thalamus, Baseline Ave.) is listed as 2385.1 ml/cm^3; in data set [2] (Thalamus, Co101244 block), 596.9 ml/cm^3; in data set [2] (Thalamus, Self-block) it was 445.9 ml/cm^3; in data set [2] (Whole Brain, Baseline Ave.), 1959.7 ml/cm^3; in data set [2] (Whole Brain, Co101244 block), 511.6 ml/cm^3; in data set [2] (whole brain, self-block), 408.1 ml/cm^3. The “binding potential of whole brain, BPND” value in data set [2] (whole brain, Co101244) is 3.8; in data set [3] (whole brain, self-block) it was 4.6. Also, the “time after radioligand injection from which V showed time stability” value in data set [3] was no less than 80 min. In data set [1] (PET imaging in rats), the displacement was 65%. Further, the preblocking in data set [1] (PET imaging in rats) stood at 95%. Moreover, in data set [1] (PET imaging in rats), the reversibility of binding entry was “reversible binding”. Besides, the “washout of brain radioactivity” value in data set [1] was “slow washout”. Also, in data set [1] (rats, within 5 minutes), the “brain radioactivity uptake (in words)” value is given as “very high”.
In the case of `COc1ccc2c(c1)CCN(CCCCc1ccc(SC)cc1)CC2O` (stereo not drawn) [[^11C]NR2B-SMe, [^11C] 7-methoxy-3-(4-(4-(methylthio)phenyl)butyl)-2,3,4,5-tetrahydro-1H-benzo[d]azepin-1-ol], in data set [1], the brain radioactivity uptake came to 3.5 SUV and the “washout of brain radioactivity” value is recorded as “very low washout”.
Regarding `CC(C(O)c1ccc(O)cc1)N1CCC(Cc2ccccc2)CC1` (stereo not drawn) [ifendopril, reference compound], the “effect of pretreatment” value in data set [1] (rats, 3 mg/kg i.v) is on record as “blocked brain radioactivity uptake to the similar high extent”.
